For assay [1], the system named is T1, free laccase from T. versicolor (TV).
T1 construct: gene LCC1
Conditions: read-out: Km Free Laccase; free enzyme from crude culture supernatant; ABTS 0.05-2.0 mM; general assay buffer 0.1 M sodium acetate pH 4.5.

The subject of assay [2] is T2, free laccase from F. fomentarius (FF).
T2 construct: gene lac
Conditions: read-out: Km Free Laccase; free enzyme from crude culture supernatant; ABTS 0.05-2.0 mM; general assay buffer 0.1 M sodium acetate pH 4.5.

For orientation: Km means the substrate concentration at which the rate is half of its maximum.

As to `CCn1c(=NN=c2sc3cc(S(=O)(=O)O)ccc3n2CC)sc2cc(S(=O)(=O)O)ccc21` [ABTS], the Km in assay [1] was found to be 1900 µM; in assay [2], 87 µM.
